Laboratory results: patent US7094797B2, “Organ fibrosis inhibitor” (Ajinomoto Co., Inc., priority 2001, dated 2006)

Columns and labels:
[1] = system: Hepatic stellate cells; assay: PDGF-stimulated DNA synthesis (BrdU uptake, ELISA) of Hepatic stellate cells; format: cell-based, rat; details: PDGF 25 ng/ml
Procedure: Hepatic stellate cells were isolated from a male Wistar rat liver and were cultured by the liver perfusion method with pronase E and collagenase. Hepatic stellate cells on day 8 to day 14 were cultured overnight in a culture medium containing 10 vol. % fetal calf serum (FCS). The culture medium was replaced with a culture medium containing 0.1 vol. % FCS, and it was cultured for 48 hours. Subsequently, L-histidine as the test substance was added in an amount to give a concentration of 1 to 30 mM. Then, further, platelet-derived growth factor (PDGF) was added to give a final concentration of 25 ng/ml, and the Hepatic stellate cells were cultured for 24 hours. Six hours before the completion of the culturing, bromodeoxyuridine (BrdU) was added to the culture system. After the completion of the culturing, the BrdU uptake into the cells was assayed by ELISA (enzyme-linked immunosorbent assay). As a control, only PDGF (at the final concentration of 25 ng/ml) was added to the culture medium. When the BrdU uptake in the control was defined as 100%, the value of each of the groups was calculated and the results are shown in FIG. 2.
In the same manner as in Example 2, the effects of L-histidine and D-histidine (individually at 30 mM) on the DNA synthesis of Hepatic stellate cells were compared with each other. When the BrdU uptake in the control was defined as 100%, the value of each of the groups was calculated and is shown in FIG. 3.
Hepatic stellate cells were isolated from male Wistar rat liver, and were cultured by the liver perfusion method with pronase E and collagenase. Hepatic stellate cells on day 8 to day 14 were cultured overnight in a culture medium containing 10 vol. % fetal calf serum (FCS). The culture medium was replaced with a 0.1 vol. % FCS culture medium, and it was cultured for 48 hours. Subsequently, L-cysteine, L-histidine or a composition of L-cysteine and L-histidine as a test substance was added thereto. […] When the BrdU uptake in the control was defined as 100%, the value of each of the groups was calculated and the results are shown in FIG. 4.

[2] = system: Human normal lung fibroblast cells (HLF-1 cell); assay: DNA synthesis (BrdU uptake, ELISA) of human normal lung fibroblast cells stimulated with PDGF or FCS; format: cell-based; details: HLF-1, 10 or 30 mM, 24 hours
Procedure: Human normal lung fibroblast cells (HLF-1 cell) were cultured overnight in a culture medium containing 10 vol. % fetal calf serum (FCS). Subsequently, the culture medium was replaced with a 0.1 vol. % FCS culture medium, and it was cultured for 24 hours. Subsequently, L-histidine (His) as the test substance was added so that the concentration was 10 or 30 mM. Then, further, platelet-derived growth factor (PDGF) was added to give a final concentration of 25 ng/ml or FCS was added to give a final concentration of 5 vol. %, and the HLF-1 cells were cultured for 24 hours. Six hours before the completion of the culturing, bromodeoxyuridine (BrdU) was added to the culture system. After the completion of the culturing, the BrdU uptake into the cells was assayed by ELISA (enzyme-linked immunosorbent assay). As a control, only PDGF (at the final concentration of 25 ng/ml) or FCS (at the final concentration of 5 vol. %) was added to the culture medium.

[3] = system: liver fibrosis induced by dimethylnitroseamine (DMN) in SD rat; assay: DMN-induced liver fibrosis in rat, amount of hydroxyproline (Hyp) in the liver; format: in vivo; details: male SD rat, DMN 10 mg/kg i.p. three times weekly for 3 weeks; His 0.2, 0.5, 1.0, 2.0 wt. % in feed, oral; day 21; FIG. 1
Procedure: Dimethylnitroseamine (DMN) was administered intraperitoneally at 10 mg/kg three times weekly to a male 9-week-old SD rat for 3 weeks to induce liver fibrosis. A commercially available feed or experimental diets prepared by adding L-histidine (His) as a test substance at concentrations of 0.2, 0.5, 1.0, and 2.0 wt. % to a commercially available feed were fed beginning on the day of start of DMN administration and thereafter. On day 21 from the start of the DMN administration, the liver was collected to assay the amount of hydroxyproline (Hyp) in the liver as a liver fibrosis marker, using an amino acid analyzer.

[4] = system: liver damage due to D-galactosamine administration; details: rat given L-histidine; cited from earlier work
[5] = system: Human kidney mesangial cells; assay: DNA synthesis (BrdU uptake, ELISA) of human kidney mesangial cells stimulated with FCS; format: cell-based; details: 10 or 30 mM, FCS 5 vol. %, 24 hours; FIG. 6
Procedure: Human kidney mesangial cells were cultured overnight in a culture medium containing 10 vol. % fetal calf serum (FCS). Subsequently, the culture medium was replaced with a 0.1 vol. % FCS culture medium, and it was cultured for 24 hours. Subsequently, L-histidine (His) as a test substance was added in an amount to give a concentration of 10 or 30 mM. Then, further, FCS was added to give a final concentration of 5 vol. %, and the mesangial cells were cultured for 24 hours. Six hours before the completion of the culturing, bromodeoxyuridine (BrdU) was added to the culture system. After the completion of the culturing, the BrdU uptake into the cells was assayed by ELISA (enzyme-linked immunosorbent assay). As a control, only 5 vol. % FCS was added to the culture medium. When the BrdU uptake in the control was defined as 100%, the value of each of the groups was calculated and the results are shown in FIG. 6.

[6] = 30 mM, levels of suppression of L- and D-form almost equal, FIG. 3

SMILES	DNA synthesis of Hepatic stellate cells activated with PDGF (BrdU uptake) [1, 6]	DNA synthesis of human normal lung fibroblast cell with FCS (BrdU uptake) ([2]; FCS 5 vol. %, FIG. 5b)	DNA synthesis of human normal lung fibroblast cell with PDGF (BrdU uptake) ([2]; PDGF 25 ng/ml, FIG. 5a)	DNA synthesis of Hepatic stellate cells activated with PDGF (BrdU uptake) ([1]; 1 to 30 mM, 24 hours, dose-dependent, FIG. 2)	amount of Hyp in the liver (liver fibrosis marker) [3]	liver damage due to D-galactosamine administration [4]	DNA synthesis of human kidney mesangial cell with FCS (BrdU uptake) [5]
N[C@H](Cc1c[nH]cn1)C(=O)O [D-histidine]	strongly suppressed	–	–	–	–	–	–
N[C@@H](Cc1c[nH]cn1)C(=O)O [L-histidine]	strongly suppressed	strongly suppressed	strongly suppressed	strongly suppressed	significantly decreased	can be reduced	strongly suppressed
